Assay results as given in US5358951A, “Angiotensin II receptor blocking 2, 3, 6 substituted quinazolinones” (American Cyanamid Company, priority 1993, dated 1994).

Test system: vasopressor response of angiotensin II
Assay: AII Challenge: antagonism of angiotensin II vasopressor response;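 as to Response Average Change: post-dose Angiotensin II-evoked rise in systolic blood pressure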
Format: in vivo
Conditions: for inhibition in vivo at 1 mg/kg / inhibition in vivo at 5 mg/kg: Rattus norvegicus; for inhibition in vivo at 1 mg/kg: iv; for inhibition in vivo at 5 mg/kg: po
Summary of the method: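 Conscious male SHR (16-20 weeks) with aortic and caval cannulae received angiotensin II at 0.05 and 0.1 ug/kg i.v. before and 30-300 min after compound dosing (i.v., i.p. or oral). Blockade is expressed as % of each rat's predose rise in systolic pressure.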

[1] = 1 mg/kg i.v., AII 0.05 mcg/kg IV, 30 min post dose
[2] = 1 mg/kg i.v., AII 0.05 mcg/kg IV, 60 min post dose
[3] = 1 mg/kg i.v., AII 0.05 mcg/kg IV, 90 min post dose
[4] = 1 mg/kg i.v., AII 0.05 mcg/kg IV, 120 min post dose
[5] = 1 mg/kg i.v., AII 0.05 mcg/kg IV, 180 min post dose
[6] = 1 mg/kg i.v., AII 0.05 mcg/kg IV, 240 min post dose
[7] = 1 mg/kg i.v., AII 0.05 mcg/kg IV, 300 min post dose
[8] = 1 mg/kg i.v., AII 0.1 mcg/kg IV, 30 min post dose
[9] = 1 mg/kg i.v., AII 0.1 mcg/kg IV, 60 min post dose
[10] = 1 mg/kg i.v., AII 0.1 mcg/kg IV, 90 min post dose
[11] = 1 mg/kg i.v., AII 0.1 mcg/kg IV, 120 min post dose
[12] = 1 mg/kg i.v., AII 0.1 mcg/kg IV, 180 min post dose
[13] = 1 mg/kg i.v., AII 0.1 mcg/kg IV, 240 min post dose
[14] = 1 mg/kg i.v., AII 0.1 mcg/kg IV, 300 min post dose
[15] = 0.5 h, 1 mg/kg i.v., AII 0.05 mcg/kg IV, 30 min post dose
[16] = 0.5 h, 1 mg/kg i.v., AII 0.1 mcg/kg IV, 30 min post dose
[17] = 1 h, 1 mg/kg i.v., AII 0.05 mcg/kg IV, 60 min post dose
[18] = 1 h, 1 mg/kg i.v., AII 0.1 mcg/kg IV, 60 min post dose
[19] = 2 h, 1 mg/kg i.v., AII 0.05 mcg/kg IV, 120 min post dose
[20] = 2 h, 1 mg/kg i.v., AII 0.1 mcg/kg IV, 120 min post dose
[21] = 3 h, 1 mg/kg i.v., AII 0.05 mcg/kg IV, 180 min post dose
[22] = 3 h, 1 mg/kg i.v., AII 0.1 mcg/kg IV, 180 min post dose
[23] = 4 h, 1 mg/kg i.v., AII 0.05 mcg/kg IV, 240 min post dose
[24] = 4 h, 1 mg/kg i.v., AII 0.1 mcg/kg IV, 240 min post dose
[25] = 5 h, 1 mg/kg i.v., AII 0.05 mcg/kg IV, 300 min post dose
[26] = 5 h, 1 mg/kg i.v., AII 0.1 mcg/kg IV, 300 min post dose
[27] = […], 1 mg/kg i.v., AII 0.05 mcg/kg IV, 90 min post dose
[28] = […], 1 mg/kg i.v., AII 0.1 mcg/kg IV, 90 min post dose

With `CCCCc1nc2ccc([C@@]3(C)C[C@@H]4CCC(C)(C)N4O3)cc2c(=O)n1Cc1ccc(-c2ccccc2-c2nnn[nH]2)cc1` (relative stereo) [Example 66, Cis-2-Butyl-6-(hexahydro-2,6,6-trimethylpyrrolo[1,2-b]isoxazol-2-yl)-3-[[2'-(1H-tetrazol-5-yl)[1,1'-biphenyl]-4-yl]methyl]-4(3H)-quinazolinone] the “Response Average Change” value [1] was 2.5 mmHg, the “Response Average Change” value [2] was 0 mmHg and the “Response Average Change” value [3] was 9 mmHg. The “Response Average Change” value [4] was 11.5 mmHg, the “Response Average Change” value [5] was 15 mmHg and the “Response Average Change” value [6] was 12.5 mmHg. For the same molecule, the “Response Average Change” value [7] was 20 mmHg, the “Response Average Change” value [8] was 5 mmHg and the “Response Average Change” value [9] was 2.5 mmHg. The “Response Average Change” value [10] was 7.5 mmHg, the “Response Average Change” value [11] was 7.5 mmHg and the “Response Average Change” value [12] was 14 mmHg. For the same molecule, the “Response Average Change” value [13] was 14 mmHg, the “Response Average Change” value [14] was 17.5 mmHg and the “Response Average Change” value (5 mg/kg P.O., AII 0.05 mcg/kg IV, 30 min post dose) was 10 mmHg. For the same molecule, the “Response Average Change” value (5 mg/kg P.O., AII 0.05 mcg/kg IV, 60 min post dose) was 7.5 mmHg, the “Response Average Change” value (5 mg/kg P.O., AII 0.05 mcg/kg IV, 90 min post dose) was 3 mmHg and the “Response Average Change” value (5 mg/kg P.O., AII 0.05 mcg/kg IV, 120 min post dose) was 7.5 mmHg. For the same molecule, the “Response Average Change” value (5 mg/kg P.O., AII 0.05 mcg/kg IV, 180 min post dose) was 5 mmHg, the “Response Average Change” value (5 mg/kg P.O., AII 0.05 mcg/kg IV, 240 min post dose) was 5 mmHg and the “Response Average Change” value (5 mg/kg P.O., AII 0.05 mcg/kg IV, 300 min post dose) was 10 mmHg. The “Response Average Change” value (5 mg/kg P.O., AII 0.1 mcg/kg IV, 30 min post dose) was 21 mmHg, the “Response Average Change” value (5 mg/kg P.O., AII 0.1 mcg/kg IV, 60 min post dose) was 17.5 mmHg and the “Response Average Change” value (5 mg/kg P.O., AII 0.1 mcg/kg IV, 90 min post dose) was 2.5 mmHg. For the same molecule, the “Response Average Change” value (5 mg/kg P.O., AII 0.1 mcg/kg IV, 120 min post dose) was 7.5 mmHg, the “Response Average Change” value (5 mg/kg P.O., AII 0.1 mcg/kg IV, 180 min post dose) was 12.5 mmHg and the “Response Average Change” value (5 mg/kg P.O., AII 0.1 mcg/kg IV, 240 min post dose) was 10 mmHg. For the same molecule, the “Response Average Change” value (5 mg/kg P.O., AII 0.1 mcg/kg IV, 300 min post dose) was 10 mmHg, the inhibition in vivo at 1 mg/kg [15] was 93% and the inhibition in vivo at 1 mg/kg [16] was 89%. For the same molecule, the inhibition in vivo at 1 mg/kg [17] was 100%, the inhibition in vivo at 1 mg/kg [18] was 94% and the inhibition in vivo at 1 mg/kg [19] was 69%. The inhibition in vivo at 1 mg/kg [20] was 83%, the inhibition in vivo at 1 mg/kg [21] was 60% and the inhibition in vivo at 1 mg/kg [22] was 68%. It also gave an inhibition in vivo at 1 mg/kg [23] of 67%, an inhibition in vivo at 1 mg/kg [24] of 68% and an inhibition in vivo at 1 mg/kg [25] of 47%. For the same molecule, the inhibition in vivo at 1 mg/kg [26] was 60%, the inhibition in vivo at 1 mg/kg [27] was 76% and the inhibition in vivo at 1 mg/kg [28] was 83%. For the same molecule, the inhibition in vivo at 5 mg/kg (0.5 h, 5 mg/kg P.O., AII 0.05 mcg/kg IV, 30 min post dose) was 77%, the inhibition in vivo at 5 mg/kg (0.5 h, 5 mg/kg P.O., AII 0.1 mcg/kg IV, 30 min post dose) was 52% and the inhibition in vivo at 5 mg/kg (1 h, 5 mg/kg P.O., AII 0.05 mcg/kg IV, 60 min post dose) was 83%. The inhibition in vivo at 5 mg/kg (1 h, 5 mg/kg P.O., AII 0.1 mcg/kg IV, 60 min post dose) was 60%, the inhibition in vivo at 5 mg/kg (2 h, 5 mg/kg P.O., AII 0.05 mcg/kg IV, 120 min post dose) was 83% and the inhibition in vivo at 5 mg/kg (2 h, 5 mg/kg P.O., AII 0.1 mcg/kg IV, 120 min post dose) was 83%. The inhibition in vivo at 5 mg/kg (3 h, 5 mg/kg P.O., AII 0.05 mcg/kg IV, 180 min post dose) was 89%, the inhibition in vivo at 5 mg/kg (3 h, 5 mg/kg P.O., AII 0.1 mcg/kg IV, 180 min post dose) was 72% and the inhibition in vivo at 5 mg/kg (4 h, 5 mg/kg P.O., AII 0.05 mcg/kg IV, 240 min post dose) was 89%. It also gave an inhibition in vivo at 5 mg/kg (4 h, 5 mg/kg P.O., AII 0.1 mcg/kg IV, 240 min post dose) of 77%, an inhibition in vivo at 5 mg/kg (5 h, 5 mg/kg P.O., AII 0.05 mcg/kg IV, 300 min post dose) of 77% and an inhibition in vivo at 5 mg/kg (5 h, 5 mg/kg P.O., AII 0.1 mcg/kg IV, 300 min post dose) of 77%. It also gave an inhibition in vivo at 5 mg/kg ([…], 5 mg/kg P.O., AII 0.05 mcg/kg IV, 90 min post dose) of 93% and an inhibition in vivo at 5 mg/kg ([…], 5 mg/kg P.O., AII 0.1 mcg/kg IV, 90 min post dose) of 94%.

In the case of `CCCCc1nc2ccc([C@@]3(CC)C[C@@H]4CCCN4O3)cc2c(=O)n1Cc1ccc(-c2ccccc2-c2nnn[nH]2)cc1` (relative stereo) [Example 71, Cis-2-butyl-6-(2-ethylhexahydropyrrolo[1,2b]isoxazol-2-yl)-3-[[2'-[1-(1H-tetrazol-5-yl)][1,1'-biphenyl]-4-yl]methyl]-4(3H)-quinazolinone], the “Response Average Change” value [1] is reported as 20 mmHg, the “Response Average Change” value [2] is reported as 5 mmHg and the “Response Average Change” value [3] is reported as 30 mmHg. The “Response Average Change” value [4] was 15 mmHg, the “Response Average Change” value [5] was 15 mmHg and the “Response Average Change” value [6] was 15 mmHg. For the same molecule, the “Response Average Change” value [7] was 20 mmHg, the “Response Average Change” value [8] was 15 mmHg and the “Response Average Change” value [9] was 15 mmHg. The “Response Average Change” value [10] was 20 mmHg, the “Response Average Change” value [11] was 10 mmHg and the “Response Average Change” value [12] was 15 mmHg. The “Response Average Change” value [13] was 22.5 mmHg, the “Response Average Change” value [14] was 23.5 mmHg and the inhibition in vivo at 1 mg/kg [15] was 53%. For the same molecule, the inhibition in vivo at 1 mg/kg [16] was 60%, the inhibition in vivo at 1 mg/kg [17] was 88% and the inhibition in vivo at 1 mg/kg [18] was 60%. For the same molecule, the inhibition in vivo at 1 mg/kg [19] was 65%, the inhibition in vivo at 1 mg/kg [20] was 73% and the inhibition in vivo at 1 mg/kg [21] was 65%. The inhibition in vivo at 1 mg/kg [22] was 60%, the inhibition in vivo at 1 mg/kg [23] was 65% and the inhibition in vivo at 1 mg/kg [24] was 40%. For the same molecule, the inhibition in vivo at 1 mg/kg [25] was 53%, the inhibition in vivo at 1 mg/kg [26] was 37% and the inhibition in vivo at 1 mg/kg [27] was 29%. For the same molecule, the inhibition in vivo at 1 mg/kg [28] was 47%.
